From ChEMBL document CHEMBL4680222, “Sensitive fluorogenic substrates for sirtuin deacylase inhibitor discovery” (Eur J Med Chem, 2020)
The source made the active and inactive calls. The calls are words filed in the database; no cut-off is given here. *1 amine or outer side, *2 acyl side, *3 side chain or, on linkers, in order; H or OH if unused. Where a SMILES comes first, the peptide text is derived from it. The star is where a group is joined. AMC = Cc1cc(=O)oc2cc(N*)ccc12; Suc = O=C(CCC(=O)[*:2])[*:1]; Decanoyl = CCCCCCCCCC(=O)*

Assays:
[1] = biological target: T1, NAD-dependent protein deacetylase sirtuin-7 (Homo sapiens) (UniProt Q9NRC8); assay: Substrate activity at human N-terminal His-tagged SIRT7 (68 to 354 residues) expressed in Escherichia coli at 0.5 uM measured after 2 hrs in presence of NAD+ and trypsin by fluorescence assay
T1 sequence (whole entry): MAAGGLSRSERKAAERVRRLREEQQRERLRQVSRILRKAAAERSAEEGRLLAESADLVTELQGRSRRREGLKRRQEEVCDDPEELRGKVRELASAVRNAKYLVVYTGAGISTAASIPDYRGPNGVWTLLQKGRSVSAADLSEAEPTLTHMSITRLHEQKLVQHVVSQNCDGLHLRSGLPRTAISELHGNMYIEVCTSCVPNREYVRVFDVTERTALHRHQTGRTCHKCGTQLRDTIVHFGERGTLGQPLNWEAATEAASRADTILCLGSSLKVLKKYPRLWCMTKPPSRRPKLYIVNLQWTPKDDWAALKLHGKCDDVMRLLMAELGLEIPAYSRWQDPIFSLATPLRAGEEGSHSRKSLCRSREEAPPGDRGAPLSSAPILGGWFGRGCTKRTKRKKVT

[2] = biological target: NAD-dependent protein deacylase sirtuin-6 (Homo sapiens) (UniProt Q8N6T7); assay: Substrate activity at human N-terminal His-tagged SIRT6 (1 to 355 residues) expressed in Escherichia coli at 0.5 uM measured after 2 hrs in presence of NAD+ and trypsin by fluorescence assay
Sequence of NAD-dependent protein deacylase sirtuin-6 (Homo sapiens) (Q8N6T7 whole entry, the tested form may be a part): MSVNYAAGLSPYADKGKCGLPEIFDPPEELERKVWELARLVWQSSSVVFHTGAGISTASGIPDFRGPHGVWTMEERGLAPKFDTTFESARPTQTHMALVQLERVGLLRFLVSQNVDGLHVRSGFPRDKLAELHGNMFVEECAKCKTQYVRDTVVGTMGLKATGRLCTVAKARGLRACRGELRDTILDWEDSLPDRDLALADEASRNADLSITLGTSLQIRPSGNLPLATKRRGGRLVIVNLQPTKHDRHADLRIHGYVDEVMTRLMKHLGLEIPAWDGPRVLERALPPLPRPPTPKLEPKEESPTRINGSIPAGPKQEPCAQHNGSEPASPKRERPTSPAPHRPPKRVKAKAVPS

[3] = biological target: NAD-dependent protein deacylase sirtuin-5, mitochondrial (Homo sapiens) (UniProt Q9NXA8); assay: Substrate activity at human N-terminal His-tagged SIRT5 (34 to 302 residues) expressed in Escherichia coli at 0.5 uM measured after 2 hrs in presence of NAD+ and trypsin by fluorescence assay
Sequence of NAD-dependent protein deacylase sirtuin-5, mitochondrial (Homo sapiens) (Q9NXA8 37-310 limits assumed): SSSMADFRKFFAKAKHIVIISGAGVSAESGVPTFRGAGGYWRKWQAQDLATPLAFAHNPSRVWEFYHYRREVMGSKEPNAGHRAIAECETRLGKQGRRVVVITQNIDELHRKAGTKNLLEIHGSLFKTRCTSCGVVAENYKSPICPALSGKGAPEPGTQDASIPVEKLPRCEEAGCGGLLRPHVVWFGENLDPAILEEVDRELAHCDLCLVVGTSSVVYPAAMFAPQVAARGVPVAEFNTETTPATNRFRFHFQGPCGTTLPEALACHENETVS

[4] = biological target: T2, NAD-dependent protein deacetylase sirtuin-3, mitochondrial (Homo sapiens) (UniProt Q9NTG7); assay: Substrate activity at human N-terminal His-tagged SIRT3 (122 to 391 residues) expressed in Escherichia coli at 0.5 uM measured after 2 hrs in presence of NAD+ and trypsin by fluorescence assay
T2 sequence (whole entry): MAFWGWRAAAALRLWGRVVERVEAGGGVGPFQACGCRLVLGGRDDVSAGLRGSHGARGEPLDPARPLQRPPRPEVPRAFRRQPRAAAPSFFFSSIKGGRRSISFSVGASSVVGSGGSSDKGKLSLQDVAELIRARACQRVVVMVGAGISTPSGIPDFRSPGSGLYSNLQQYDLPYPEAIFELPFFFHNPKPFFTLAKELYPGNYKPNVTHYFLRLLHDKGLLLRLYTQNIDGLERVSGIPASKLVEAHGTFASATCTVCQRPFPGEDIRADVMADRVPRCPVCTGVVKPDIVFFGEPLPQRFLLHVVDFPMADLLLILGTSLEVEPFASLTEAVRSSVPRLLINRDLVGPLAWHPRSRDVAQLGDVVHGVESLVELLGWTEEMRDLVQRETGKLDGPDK

[5] = biological target: T3, NAD-dependent protein deacetylase sirtuin-2 (Homo sapiens) (UniProt Q8IXJ6); assay: Substrate activity at human N-terminal His-tagged SIRT2 (56 to 356 residues) expressed in Escherichia coli at 0.5 uM measured after 2 hrs in presence of NAD+ and trypsin by fluorescence assay
T3 sequence (whole entry): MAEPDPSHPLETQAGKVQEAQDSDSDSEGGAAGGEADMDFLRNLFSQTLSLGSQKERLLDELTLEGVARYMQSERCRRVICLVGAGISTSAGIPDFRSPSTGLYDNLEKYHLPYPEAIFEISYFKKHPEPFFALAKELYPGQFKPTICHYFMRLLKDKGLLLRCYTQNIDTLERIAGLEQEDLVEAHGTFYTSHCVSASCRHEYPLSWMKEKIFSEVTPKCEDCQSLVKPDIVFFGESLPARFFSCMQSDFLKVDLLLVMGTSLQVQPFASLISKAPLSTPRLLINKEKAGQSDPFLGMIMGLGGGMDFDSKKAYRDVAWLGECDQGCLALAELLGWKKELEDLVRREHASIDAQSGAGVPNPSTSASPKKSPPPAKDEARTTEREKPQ

[6] = biological target: T4, NAD-dependent protein deacetylase sirtuin-1 (Homo sapiens) (UniProt Q96EB6); assay: Substrate activity at human N-terminal His-tagged SIRT1 (183 to 664 residues) expressed in Escherichia coli at 0.5 uM measured after 2 hrs in presence of NAD+ and trypsin by fluorescence assay
T4 sequence (whole entry): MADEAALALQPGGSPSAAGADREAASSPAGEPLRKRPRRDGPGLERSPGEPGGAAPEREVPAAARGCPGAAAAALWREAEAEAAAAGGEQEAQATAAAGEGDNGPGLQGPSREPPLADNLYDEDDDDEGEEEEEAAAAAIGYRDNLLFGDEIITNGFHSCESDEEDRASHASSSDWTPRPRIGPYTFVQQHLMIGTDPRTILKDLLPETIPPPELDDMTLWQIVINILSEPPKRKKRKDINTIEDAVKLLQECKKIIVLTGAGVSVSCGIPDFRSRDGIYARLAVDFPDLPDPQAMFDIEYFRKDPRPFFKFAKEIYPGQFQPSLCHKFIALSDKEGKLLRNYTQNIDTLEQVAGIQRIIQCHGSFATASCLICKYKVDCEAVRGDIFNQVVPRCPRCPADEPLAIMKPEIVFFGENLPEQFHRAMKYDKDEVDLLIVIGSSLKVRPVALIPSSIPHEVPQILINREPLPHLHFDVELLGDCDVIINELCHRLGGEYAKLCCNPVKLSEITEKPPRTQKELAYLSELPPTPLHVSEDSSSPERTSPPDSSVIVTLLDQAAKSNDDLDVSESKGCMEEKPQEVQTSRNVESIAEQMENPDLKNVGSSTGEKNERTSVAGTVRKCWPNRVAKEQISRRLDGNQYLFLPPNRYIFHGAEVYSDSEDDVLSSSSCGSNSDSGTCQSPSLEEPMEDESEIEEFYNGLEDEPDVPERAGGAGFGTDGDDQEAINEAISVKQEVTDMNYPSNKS

[7] = biological target: T1, NAD-dependent protein deacetylase sirtuin-7 (Homo sapiens); assay: Substrate activity at human N-terminal His-tagged SIRT7 (68 to 354 residues) expressed in Escherichia coli at 5 uM measured after 2 hrs in presence of NAD+ and trypsin by fluorescence assay
[8] = biological target: NAD-dependent protein deacylase sirtuin-6 (Homo sapiens) (UniProt Q8N6T7); assay: Substrate activity at human N-terminal His-tagged SIRT6 (1 to 355 residues) expressed in Escherichia coli at 5 uM measured after 2 hrs in presence of NAD+ and trypsin by fluorescence assay
[9] = biological target: NAD-dependent protein deacylase sirtuin-5, mitochondrial (Homo sapiens) (UniProt Q9NXA8); assay: Substrate activity at human N-terminal His-tagged SIRT5 (34 to 302 residues) expressed in Escherichia coli at 5 uM measured after 2 hrs in presence of NAD+ and trypsin by fluorescence assay
[10] = biological target: T2, NAD-dependent protein deacetylase sirtuin-3, mitochondrial (Homo sapiens); assay: Substrate activity at human N-terminal His-tagged SIRT3 (122 to 391 residues) expressed in Escherichia coli at 5 uM measured after 2 hrs in presence of NAD+ and trypsin by fluorescence assay
[11] = biological target: T3, NAD-dependent protein deacetylase sirtuin-2 (Homo sapiens); assay: Substrate activity at human N-terminal His-tagged SIRT2 (56 to 356 residues) expressed in Escherichia coli at 5 uM measured after 2 hrs in presence of NAD+ and trypsin by fluorescence assay
[12] = biological target: T4, NAD-dependent protein deacetylase sirtuin-1 (Homo sapiens); assay: Substrate activity at human N-terminal His-tagged SIRT1 (183 to 664 residues) expressed in Escherichia coli at 5 uM measured after 2 hrs in presence of NAD+ and trypsin by fluorescence assay
[13] = biological target: T1, NAD-dependent protein deacetylase sirtuin-7 (Homo sapiens); assay: Substrate activity at human N-terminal His-tagged SIRT7 (68 to 354 residues) expressed in Escherichia coli at 50 uM measured after 2 hrs in presence of NAD+ and trypsin by fluorescence assay
[14] = biological target: NAD-dependent protein deacylase sirtuin-6 (Homo sapiens) (UniProt Q8N6T7); assay: Substrate activity at human N-terminal His-tagged SIRT6 (1 to 355 residues) expressed in Escherichia coli at 50 uM measured after 2 hrs in presence of NAD+ and trypsin by fluorescence assay
[15] = biological target: NAD-dependent protein deacylase sirtuin-5, mitochondrial (Homo sapiens) (UniProt Q9NXA8); assay: Substrate activity at human N-terminal His-tagged SIRT5 (34 to 302 residues) expressed in Escherichia coli at 50 uM measured after 2 hrs in presence of NAD+ and trypsin by fluorescence assay
[16] = biological target: T2, NAD-dependent protein deacetylase sirtuin-3, mitochondrial (Homo sapiens); assay: Substrate activity at human N-terminal His-tagged SIRT3 (122 to 391 residues) expressed in Escherichia coli at 50 uM measured after 2 hrs in presence of NAD+ and trypsin by fluorescence assay
[17] = biological target: T3, NAD-dependent protein deacetylase sirtuin-2 (Homo sapiens); assay: Substrate activity at human N-terminal His-tagged SIRT2 (56 to 356 residues) expressed in Escherichia coli at 50 uM measured after 2 hrs in presence of NAD+ and trypsin by fluorescence assay
[18] = biological target: T4, NAD-dependent protein deacetylase sirtuin-1 (Homo sapiens); assay: Substrate activity at human N-terminal His-tagged SIRT1 (183 to 664 residues) expressed in Escherichia coli at 50 uM measured after 2 hrs in presence of NAD+ and trypsin by fluorescence assay
[19] = biological target: NAD-dependent protein deacylase sirtuin-5, mitochondrial (Homo sapiens) (UniProt Q9NXA8); assay: Substrate activity at human N-terminal His-tagged SIRT5 (34 to 302 residues) expressed in Escherichia coli at 5 uM measured after 1 hr in presence of NAD+ and trypsin by fluorescence assay

| Compound | Activity [1] | Activity [2] | Activity [3] | Activity [4] | Activity [5] | Activity [6] | Activity [7] | Activity [8] | Activity [9] | Activity [10] | Activity [11] | Activity [12] | Activity [13] | Activity [14] | Activity [15] | Activity [16] | Activity [17] | Activity [18] | Activity [19] |
| --- | --- | --- | --- | --- | --- | --- | --- | --- | --- | --- | --- | --- | --- | --- | --- | --- | --- | --- | --- |
| CC(=O)N[C@@H](CC(C)C)C(=O)NCC(=O)N[C@@H](CO)C(=O)N[C@@H](CCCCNC(=O)CCC(=O)O)C(=O)Nc1ccc2c(C)cc(=O)oc2c1 (Ac-LGSK(Suc)-{AMC}) | 0.28 RFU | 0.41 RFU | 3.07 RFU | 0.5 RFU | 0.2 RFU | 0.2 RFU | 0.32 RFU | 0.37 RFU | 25.1 RFU | 0.56 RFU | 0.21 RFU | 0.35 RFU | 1.14 RFU | 1.14 RFU | 1.41 RFU | 1.42 RFU | 0.9 RFU | 0.98 RFU | Active |
| CCCCCCCCCC(=O)NCCCC[C@H](NC(=O)[C@H](CCC(N)=O)NC(=O)[C@@H](NC(=O)[C@H](CCCCN)NC(C)=O)C(C)C)C(=O)Nc1ccc2c(C)cc(=O)oc2c1 (Ac-KVQK(Decanoyl)-{AMC}) | 0.6 RFU | 0.46 RFU | 0.28 RFU | 0.51 RFU | 1.68 RFU | 1.68 RFU | 0.44 RFU | 0.74 RFU | 0.24 RFU | 0.73 RFU | 1.72 RFU | 0.74 RFU | 1.09 RFU | 1.09 RFU | 0.78 RFU | 0.85 RFU | 3.19 RFU | 1.1 RFU | – |
| CCCCCCCCCC(=O)NCCCC[C@H](NC(=O)[C@H](CCCNC(=N)N)NC(=O)[C@H](C)NC(=O)[C@@H](NC(C)=O)[C@@H](C)O)C(=O)Nc1ccc2c(C)cc(=O)oc2c1 (Ac-TARK(Decanoyl)-{AMC}) | 0.35 RFU | 0.48 RFU | 0.26 RFU | 0.26 RFU | 0.25 RFU | 0.25 RFU | 0.35 RFU | 0.38 RFU | 0.28 RFU | 0.4 RFU | 0.65 RFU | 0.46 RFU | 0.79 RFU | 0.79 RFU | 1.38 RFU | 1.08 RFU | 1.94 RFU | 1.43 RFU | – |
| CC(=O)NCCCC[C@H](NC(=O)[C@H](CO)NC(=O)[C@H](Cc1ccccc1)NC(=O)[C@H](CC(=O)O)NC(C)=O)C(=O)Nc1ccc2c(C)cc(=O)oc2c1 (Ac-DFSK(Ac)-{AMC}) | 0.39 RFU | 0.48 RFU | 0.26 RFU | 0.32 RFU | 0.31 RFU | 0.31 RFU | 0.65 RFU | 0.36 RFU | 0.29 RFU | 1.29 RFU | 1.13 RFU | 3.38 RFU | 0.58 RFU | 0.58 RFU | 0.81 RFU | 7.07 RFU | 6.75 RFU | 21.2 RFU | – |
| CC(=O)NCCCC[C@H](NC(=O)[C@H](CCCCN)NC(=O)[C@H](Cc1cnc[nH]1)NC(=O)[C@H](CCCNC(=N)N)NC(C)=O)C(=O)Nc1ccc2c(C)cc(=O)oc2c1 (Ac-RHKK(Ac)-{AMC}) | 0.39 RFU | 0.5 RFU | 0.37 RFU | 0.28 RFU | 0.37 RFU | 0.37 RFU | 0.33 RFU | 0.38 RFU | 0.3 RFU | 0.38 RFU | 0.73 RFU | 1.13 RFU | 0.43 RFU | 0.43 RFU | 0.61 RFU | 1.61 RFU | 2.64 RFU | 5.22 RFU | – |
| CC(=O)NCCCC[C@H](NC(=O)[C@H](CCCNC(=N)N)NC(=O)[C@H](CO)NC(=O)[C@H](CC(N)=O)NC(C)=O)C(=O)Nc1ccc2c(C)cc(=O)oc2c1 (Ac-NSRK(Ac)-{AMC}) | 0.38 RFU | 0.49 RFU | 0.27 RFU | 0.34 RFU | 0.23 RFU | 0.23 RFU | 0.32 RFU | 0.36 RFU | 0.28 RFU | 0.41 RFU | 0.24 RFU | 0.37 RFU | 0.44 RFU | 0.44 RFU | 1.02 RFU | 0.67 RFU | 0.52 RFU | 1.21 RFU | – |
